According to PubChem BioAssay AID1963447 (Molecular Pharmacology Branch, DTP, NCI, 2024):

Test system: 885512-296-R-J2-PDC complex spheroid growth, % test/control
Test: Anticancer human tumor 885512-296-R-J2-PDC patient-derived breast carcinoma cell line growth inhibition [Asc]
Conditions: for IC50: curve of first compound; for viability, T/C: stronger effect = lower value
In short: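 Stromal components (HUVEC and hMSC) are co-assembled with the cancer cells into multicellular spheroids. Drugs are then added singly or paired, at concentrations falling by half-log increments from a clinically achievable maximum, capped at 10 microM without known Cmax.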

[1] = second compound 0.01 µM, first compound 0.0316 µM
[2] = second compound 0.01 µM, first compound 0.1 µM
[3] = second compound 0.01 µM, first compound 0.316 µM
[4] = second compound 0.01 µM, first compound 1 µM
[5] = second compound 0.01 µM, first compound 3.16 µM
[6] = second compound 0.01 µM, first compound 10 µM
[7] = second compound 0.0316 µM, first compound 0.0316 µM
[8] = second compound 0.0316 µM, first compound 0.1 µM
[9] = second compound 0.0316 µM, first compound 0.316 µM
[10] = second compound 0.0316 µM, first compound 1 µM
[11] = second compound 0.0316 µM, first compound 3.16 µM
[12] = second compound 0.0316 µM, first compound 10 µM
[13] = second compound 0.1 µM, first compound 0.0316 µM
[14] = second compound 0.1 µM, first compound 0.1 µM
[15] = second compound 0.1 µM, first compound 0.316 µM
[16] = second compound 0.1 µM, first compound 1 µM
[17] = second compound 0.1 µM, first compound 3.16 µM
[18] = second compound 0.1 µM, first compound 10 µM
[19] = second compound 0.316 µM, first compound 0.0316 µM
[20] = second compound 0.316 µM, first compound 0.1 µM
[21] = second compound 0.316 µM, first compound 0.316 µM
[22] = second compound 0.316 µM, first compound 1 µM
[23] = second compound 0.316 µM, first compound 3.16 µM
[24] = second compound 0.316 µM, first compound 10 µM
[25] = second compound 1 µM, first compound 0.0316 µM
[26] = second compound 1 µM, first compound 0.1 µM
[27] = second compound 1 µM, first compound 0.316 µM
[28] = second compound 1 µM, first compound 1 µM
[29] = second compound 1 µM, first compound 3.16 µM
[30] = second compound 1 µM, first compound 10 µM
[31] = second compound 0.01 µM, first compound 0.00949 µM
[32] = second compound 0.01 µM, first compound 0.03 µM
[33] = second compound 0.01 µM, first compound 0.0949 µM
[34] = second compound 0.01 µM, first compound 0.3 µM
[35] = second compound 0.01 µM, first compound 0.949 µM
[36] = second compound 0.01 µM, first compound 3 µM
[37] = second compound 0.0316 µM, first compound 0.00949 µM
[38] = second compound 0.0316 µM, first compound 0.03 µM
[39] = second compound 0.0316 µM, first compound 0.0949 µM
[40] = second compound 0.0316 µM, first compound 0.3 µM
[41] = second compound 0.0316 µM, first compound 0.949 µM
[42] = second compound 0.0316 µM, first compound 3 µM
[43] = second compound 0.1 µM, first compound 0.00949 µM
[44] = second compound 0.1 µM, first compound 0.03 µM
[45] = second compound 0.1 µM, first compound 0.0949 µM
[46] = second compound 0.1 µM, first compound 0.3 µM
[47] = second compound 0.1 µM, first compound 0.949 µM
[48] = second compound 0.1 µM, first compound 3 µM
[49] = second compound 0.316 µM, first compound 0.00949 µM
[50] = second compound 0.316 µM, first compound 0.03 µM
[51] = second compound 0.316 µM, first compound 0.0949 µM
[52] = second compound 0.316 µM, first compound 0.3 µM
[53] = second compound 0.316 µM, first compound 0.949 µM
[54] = second compound 0.316 µM, first compound 3 µM
[55] = second compound 1 µM, first compound 0.00949 µM
[56] = second compound 1 µM, first compound 0.03 µM
[57] = second compound 1 µM, first compound 0.0949 µM
[58] = second compound 1 µM, first compound 0.3 µM
[59] = second compound 1 µM, first compound 0.949 µM
[60] = second compound 1 µM, first compound 3 µM
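Note: spheroids exposed to compounds for seven days.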
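Throughout, for viability, T/C: 100% = DMSO vehicle control wells.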

SMILES: C#Cc1c(F)ccc2cc(O)cc(-c3ncc4c(N5CC6CCC(C5)N6)nc(OCC56CCCN5CC(F)C6)nc4c3F)c12 (stereo not given) + CNC(C)C(=O)NC1CN(S(=O)(=O)c2cccc(S(=O)(=O)N3CCC4CCC(C(=O)NC(c5ccccc5)c5ccccc5)N4C(=O)C(NC(=O)C(C)NC)C3)c2)CCC2CCC(C(=O)NC(c3ccccc3)c3ccccc3)N2C1=O
- IC50 (second compound 0.01 µM): > 10000 nM
- IC50 (second compound 0.0316 µM): > 10000 nM
- IC50 (second compound 0.1 µM): > 10000 nM
- IC50 (second compound 0.316 µM): > 10000 nM
- IC50 (second compound 1 µM): > 10000 nM
- viability, T/C [1]: 94.5%
- viability, T/C [2]: 111%
- viability, T/C [3]: 83.5%
- viability, T/C [4]: 69.7%
- viability, T/C [5]: 89.9%
- viability, T/C [6]: 94.5%
- viability, T/C [7]: 102%
- viability, T/C [8]: 104%
- viability, T/C [9]: 96.6%
- viability, T/C [10]: 110%
- viability, T/C [11]: 108%
- viability, T/C [12]: 91.5%
- viability, T/C [13]: 102%
- viability, T/C [14]: 97%
- viability, T/C [15]: 109%
- viability, T/C [16]: 99.4%
- viability, T/C [17]: 108%
- viability, T/C [18]: 86.9%
- viability, T/C [19]: 112%
- viability, T/C [20]: 109%
- viability, T/C [21]: 104%
- viability, T/C [22]: 112%
- viability, T/C [23]: 107%
- viability, T/C [24]: 86.7%
- viability, T/C [25]: 107%
- viability, T/C [26]: 108%
- viability, T/C [27]: 116%
- viability, T/C [28]: 105%
- viability, T/C [29]: 105%
- viability, T/C [30]: 94.6%

SMILES: C=C(F)C(=O)N1CCN(c2nc(OCC3CCCN3C)nc3c2CCN(c2cccc4cccc(Cl)c24)C3)CC1CC#N (stereo not given) + CNC(C)C(=O)NC1CN(S(=O)(=O)c2cccc(S(=O)(=O)N3CCC4CCC(C(=O)NC(c5ccccc5)c5ccccc5)N4C(=O)C(NC(=O)C(C)NC)C3)c2)CCC2CCC(C(=O)NC(c3ccccc3)c3ccccc3)N2C1=O
- IC50 (second compound 0.01 µM): 2660 nM
- IC50 (second compound 0.0316 µM): 2290 nM
- IC50 (second compound 0.1 µM): 2450 nM
- IC50 (second compound 0.316 µM): 2240 nM
- IC50 (second compound 1 µM): 2240 nM
- viability, T/C [1]: 88.6%
- viability, T/C [2]: 91.8%
- viability, T/C [3]: 95.7%
- viability, T/C [4]: 84.8%
- viability, T/C [5]: 43.8%
- viability, T/C [6]: 0.11%
- viability, T/C [7]: 100%
- viability, T/C [8]: 101%
- viability, T/C [9]: 100%
- viability, T/C [10]: 99.7%
- viability, T/C [11]: 30.7%
- viability, T/C [12]: 0.3%
- viability, T/C [13]: 105%
- viability, T/C [14]: 102%
- viability, T/C [15]: 102%
- viability, T/C [16]: 104%
- viability, T/C [17]: 34.9%
- viability, T/C [18]: 0.09%
- viability, T/C [19]: 110%
- viability, T/C [20]: 103%
- viability, T/C [21]: 113%
- viability, T/C [22]: 103%
- viability, T/C [23]: 27.5%
- viability, T/C [24]: 0.09%
- viability, T/C [25]: 114%
- viability, T/C [26]: 113%
- viability, T/C [27]: 115%
- viability, T/C [28]: 95.3%
- viability, T/C [29]: 30.5%
- viability, T/C [30]: 0.38%

SMILES: C=CC(=O)N1CCN(c2nc(=O)n(-c3c(C)ccnc3C(C)C)c3nc(-c4c(O)cccc4F)c(F)cc23)C(C)C1 (stereo not given) + CNC(C)C(=O)NC1CN(S(=O)(=O)c2cccc(S(=O)(=O)N3CCC4CCC(C(=O)NC(c5ccccc5)c5ccccc5)N4C(=O)C(NC(=O)C(C)NC)C3)c2)CCC2CCC(C(=O)NC(c3ccccc3)c3ccccc3)N2C1=O
- IC50 (second compound 0.01 µM): > 10000 nM
- IC50 (second compound 0.0316 µM): > 10000 nM
- IC50 (second compound 0.1 µM): > 10000 nM
- IC50 (second compound 0.316 µM): > 10000 nM
- IC50 (second compound 1 µM): > 10000 nM
- viability, T/C [1]: 88.2%
- viability, T/C [2]: 80.9%
- viability, T/C [3]: 101%
- viability, T/C [4]: 81.3%
- viability, T/C [5]: 90.6%
- viability, T/C [6]: 64.2%
- viability, T/C [7]: 90.3%
- viability, T/C [8]: 104%
- viability, T/C [9]: 96.6%
- viability, T/C [10]: 97.2%
- viability, T/C [11]: 92.6%
- viability, T/C [12]: 68.5%
- viability, T/C [13]: 111%
- viability, T/C [14]: 109%
- viability, T/C [15]: 98%
- viability, T/C [16]: 98.6%
- viability, T/C [17]: 87.7%
- viability, T/C [18]: 66.8%
- viability, T/C [19]: 104%
- viability, T/C [20]: 106%
- viability, T/C [21]: 98.8%
- viability, T/C [22]: 100%
- viability, T/C [23]: 84.4%
- viability, T/C [24]: 68.6%
- viability, T/C [25]: 105%
- viability, T/C [26]: 103%
- viability, T/C [27]: 104%
- viability, T/C [28]: 109%
- viability, T/C [29]: 79.2%
- viability, T/C [30]: 59%

SMILES: CCN1C(C(=O)NC23CCC(C(=O)O)(CC2)CC3)C(c2cccc(Cl)c2F)C2(C(=O)Nc3cc(Cl)ccc32)C12CCCCC2 (stereo not given) + CNC(C)C(=O)NC1CN(S(=O)(=O)c2cccc(S(=O)(=O)N3CCC4CCC(C(=O)NC(c5ccccc5)c5ccccc5)N4C(=O)C(NC(=O)C(C)NC)C3)c2)CCC2CCC(C(=O)NC(c3ccccc3)c3ccccc3)N2C1=O
- IC50 (second compound 0.01 µM): > 3000 nM
- IC50 (second compound 0.0316 µM): 2970 nM
- IC50 (second compound 0.1 µM): > 3000 nM
- IC50 (second compound 0.316 µM): > 3000 nM
- IC50 (second compound 1 µM): > 3000 nM
- viability, T/C [31]: 85.2%
- viability, T/C [32]: 77.7%
- viability, T/C [33]: 87%
- viability, T/C [34]: 84%
- viability, T/C [35]: 67%
- viability, T/C [36]: 53.5%
- viability, T/C [37]: 103%
- viability, T/C [38]: 98.3%
- viability, T/C [39]: 88.7%
- viability, T/C [40]: 97.2%
- viability, T/C [41]: 84.7%
- viability, T/C [42]: 49.4%
- viability, T/C [43]: 98.7%
- viability, T/C [44]: 107%
- viability, T/C [45]: 108%
- viability, T/C [46]: 104%
- viability, T/C [47]: 77.2%
- viability, T/C [48]: 51.7%
- viability, T/C [49]: 104%
- viability, T/C [50]: 103%
- viability, T/C [51]: 111%
- viability, T/C [52]: 97.9%
- viability, T/C [53]: 86%
- viability, T/C [54]: 57.8%
- viability, T/C [55]: 104%
- viability, T/C [56]: 118%
- viability, T/C [57]: 111%
- viability, T/C [58]: 101%
- viability, T/C [59]: 90%
- viability, T/C [60]: 60.3%

SMILES: Cc1nc(N2CCC3(CC2)COC(C)C3N)c(CO)nc1Sc1ccnc(N)c1Cl (stereo not given) + CNC(C)C(=O)NC1CN(S(=O)(=O)c2cccc(S(=O)(=O)N3CCC4CCC(C(=O)NC(c5ccccc5)c5ccccc5)N4C(=O)C(NC(=O)C(C)NC)C3)c2)CCC2CCC(C(=O)NC(c3ccccc3)c3ccccc3)N2C1=O
- IC50 (second compound 0.01 µM): 168 nM
- IC50 (second compound 0.0316 µM): 237 nM
- IC50 (second compound 0.1 µM): 201 nM
- IC50 (second compound 0.316 µM): 277 nM
- IC50 (second compound 1 µM): 270 nM
- viability, T/C [31]: 90.9%
- viability, T/C [32]: 73.2%
- viability, T/C [33]: 54%
- viability, T/C [34]: 45.3%
- viability, T/C [35]: 43.4%
- viability, T/C [36]: 38.7%
- viability, T/C [37]: 90.1%
- viability, T/C [38]: 77%
- viability, T/C [39]: 59.3%
- viability, T/C [40]: 47.3%
- viability, T/C [41]: 43.1%
- viability, T/C [42]: 39.5%
- viability, T/C [43]: 102%
- viability, T/C [44]: 91.7%
- viability, T/C [45]: 60.1%
- viability, T/C [46]: 46.3%
- viability, T/C [47]: 39.9%
- viability, T/C [48]: 39.9%
- viability, T/C [49]: 120%
- viability, T/C [50]: 107%
- viability, T/C [51]: 70.3%
- viability, T/C [52]: 50.4%
- viability, T/C [53]: 41.8%
- viability, T/C [54]: 38.9%
- viability, T/C [55]: 114%
- viability, T/C [56]: 112%
- viability, T/C [57]: 71.8%
- viability, T/C [58]: 52.7%
- viability, T/C [59]: 41.1%
- viability, T/C [60]: 38.7%
